Assay results reported in patent US7476681B2, “17β-hydroxysteroid dehydrogenase type 3 inhibitors for the treatment of androgen dependent diseases” (Schering Corporation, priority 2002, dated 2009).

melting point: 90 to 92 °C
SMILES: CC(=O)NCCN(C(=O)N1CCN(C(c2ccccc2)c2ccccc2)C[C@@H]1C(C)C)C1CCN(C(C)=O)CC1 [Example 16]
